molecular target: Coagulation factor X (Homo sapiens, UniProt P00742); assay: Inhibition of human factor 10a
Sequence (P00742 41-179 limits assumed): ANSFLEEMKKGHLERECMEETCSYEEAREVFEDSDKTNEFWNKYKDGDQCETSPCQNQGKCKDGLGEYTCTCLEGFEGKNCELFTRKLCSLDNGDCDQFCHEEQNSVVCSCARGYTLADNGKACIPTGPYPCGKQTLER
Sequence (P00742 235-488 limits assumed): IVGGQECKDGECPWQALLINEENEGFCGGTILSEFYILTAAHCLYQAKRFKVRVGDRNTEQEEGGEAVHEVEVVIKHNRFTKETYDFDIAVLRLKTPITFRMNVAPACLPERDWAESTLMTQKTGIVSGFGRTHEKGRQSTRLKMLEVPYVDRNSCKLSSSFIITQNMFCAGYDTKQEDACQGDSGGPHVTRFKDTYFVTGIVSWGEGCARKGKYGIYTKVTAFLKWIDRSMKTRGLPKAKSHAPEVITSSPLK

Question: How did the Ki turn out when `COc1ccc2ccc(S(=O)(=O)NC3CCN(Cc4cc(N)cc(C(=N)N)c4)C3=O)cc2c1` (stereo not given) was run?
Answer: 1260 nM

Question: Which Ki does the source give for `COc1ccc2ccc(S(=O)(=O)NC3CCN(Cc4cc(C(=N)N)ccc4O)C3=O)cc2c1` (stereo not given) here?
Answer: 3.16 nM

Question: Which Ki does the source give for `COc1ccc2ccc(S(=O)(=O)NC3CCN(Cc4ccc(O)c(C(=N)N)c4)C3=O)cc2c1` (stereo not given) here?
Answer: 1000 nM

Question: How did the Ki turn out when `COC(=O)COc1ccc(C(=N)N)cc1CN1CCC(NS(=O)(=O)c2ccc3ccc(OC)cc3c2)C1=O` (stereo not given) was run?
Answer: 7.94 nM

Question: With `COc1ccc2ccc(S(=O)(=O)NC3CCN(Cc4cc(C(=N)N)ccc4OCC(=O)O)C3=O)cc2c1` (stereo not given) as the compound, how does the Ki read?
Answer: 1260 nM

Question: For `COc1ccc(-n2nc(C(F)(F)F)c3c2C(=O)N(c2ccc(-c4ccccc4CN4CCC(O)C4)cc2)CC3)cc1` (stereo not given), which Ki is on record?
Answer: 0.501 nM

Question: Which Ki does the source give for `COc1ccc(-n2nc(C(F)(F)F)c3c2C(=O)N(c2ccc(-c4ccccc4S(C)(=O)=O)cc2)CC3)cc1` here?
Answer: 0.2 nM

Question: For `COc1ccc(-n2nc(C(F)(F)F)c3c2C(=O)N(c2ccc(N(C)C)cc2)CC3)cc1`, which Ki is on record?
Answer: 6.31 nM

Question: `COc1ccc(-n2nc(C(F)(F)F)c3c2C(=O)N(c2ccc(NC(C)=O)cc2)CC3)cc1` was tested. Which Ki did it give?
Answer: 200 nM

Question: How did the Ki turn out when `COc1ccc2ccc(S(=O)(=O)NC3CCN(Cc4cc(C(=N)N)ccc4N)C3=O)cc2c1` (stereo not given) was run?
Answer: 6.31 nM

— ChEMBL document CHEMBL1764989, “Local structural changes, global data views: graphical substructure-activity relationship trailing” (J Med Chem, 2011)
